From US20220000998A1 (priority 2019, published 2022)
No end group written: not given here.

Experiments:
[1] = mouse, plasma
[2] = test system: B3Z T-cells; format: cell-based, murine

Sequence | half-life [1] [min] | T-cell activation after BMDC incubation with antibody constructs and the peptide [2]
FIGITELKKLESKINKVFAVGALKVPRNQDWLGVPRQL [UU-30] | 20 | –
FIGITELKKLESKINKVFLEQLESIINFEKLAAAAAK [UU-05] | – | resulted in T-cell activation
LEQLESIINFEKLAAAAAK [UU-10, reference compound] | – | did not give rise to T-cell activation
